The subject of assay [1] is Human peripheral blood mononuclear cells (PBMC). In words: TNF-α release from LPS-stimulated PBMC. Type of assay: cell-based. To be noted: Lipopolysaccharide 1 microg/ml, 18 hours, AlphaLISA, read-out: TNF-α IC50 range. In short, it runs like this: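 Thawed human PBMC in serum-free buffer with 0.5% human serum albumin were stimulated with 1 microg/ml LPS alongside titrated compound for 18 h at 37 °C. Supernatant TNFα was measured by AlphaLISA at 615 nm, and IC50 was derived relative to LPS-only and 10 microM reference PDE4 inhibitor controls.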

The target of assay [2] is human PDE4D catalytic domain (UniProt no. Q08499 [S380-L740]) (Homo sapiens (Human), UniProt Q08499). Description: PDE4 assay (TR-FRET, cAMP hydrolysis). The settings on record: read-out: PDE4 IC50 range. Type of assay: biochemical. In short, it runs like this:
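The human PDE4D catalytic domain (S380-L740) was incubated with unlabelled plus FAM-labelled cAMP and titrated compound, briefly. Product AMP was detected by Tb-nanoparticle TR-FRET. IC50 (nM) came from Tb-normalized signal scaled between DMSO and 10 microM reference-inhibitor controls.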
Background: In TR-FRET formats the signal depends on donor and acceptor labels being close together.

The structures appear in SMILES notation. pIC50: −log10 of the molar value. Some results are limits rather than exact numbers.

As a reminder, the pIC50 is −log10 of the IC50, conventionally taken in molar units.

human PDE4D catalytic domain, sequence (Q08499 380-740): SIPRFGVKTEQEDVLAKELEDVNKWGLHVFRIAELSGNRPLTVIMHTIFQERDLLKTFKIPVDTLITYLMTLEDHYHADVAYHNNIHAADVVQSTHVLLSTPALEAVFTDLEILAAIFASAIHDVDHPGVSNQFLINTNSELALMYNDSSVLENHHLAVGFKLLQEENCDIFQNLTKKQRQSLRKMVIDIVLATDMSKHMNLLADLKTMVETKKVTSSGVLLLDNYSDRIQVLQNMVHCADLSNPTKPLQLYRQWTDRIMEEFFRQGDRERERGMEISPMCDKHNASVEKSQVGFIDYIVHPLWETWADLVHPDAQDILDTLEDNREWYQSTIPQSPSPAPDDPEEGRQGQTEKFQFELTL

Take `CN(c1nc(N2CC(OC(=O)c3cccnc3)C2)nc2c1[S@+](O)CC2)C1CCOCC1` [Example 63, [1-[(5R)-4-[methyl-(tetrahydropyran-4-yl)amino]-5-oxido-6,7-dihydrothieno[3,2-d]pyrimidin-5-ium-2-yl]azetidin-3-yl] pyridine-3-carboxylate]: the negative logarithm of the IC50 (pIC50) in assay [1] was greater than 7.00; in assay [2] it was 6.30 to 7.00.
As for `Cc1ccc(C(=O)OC2CN(c3nc4c(c(N(C)C5CCOCC5)n3)[S@+](O)CC4)C2)cc1` [Example 64, [1-[(5R)-4-[methyl-(tetrahydropyran-4-yl)amino]-5-oxido-6,7-dihydrothieno[3,2-d]pyrimidin-5-ium-2-yl]azetidin-3-yl] 4-methylbenzoate], the pIC50 in assay [1] and in assay [2] was greater than 7.00 throughout.
For `O=C(OC1CN(c2nc3c(c(NC4CC5(COC5)C4)n2)[S+](O)CC3)C1)c1cscn1` (stereo not drawn) [Example 66, [1-[4-(6-oxaspiro[3.3]-heptan-2-ylamino)-5-oxido-6,7-dihydrothieno-[3,2-d]pyrimidin-5-ium-2-yl]azetidin-3-yl] thiazole-4-carboxylate], the pIC50 in assay [1] and in assay [2] was greater than 7.00 each time.
For the compound `O=C(OC1CN(c2nc3c(c(NC4CC5(COC5)C4)n2)[S+]([O-])CC3)C1)C1CCOCC1` (stereo not drawn) [Example 67, [1-[4-(6-oxaspiro[3.3]-heptan-2-ylamino)-5-oxido-6,7-dihydro-thieno[3,2-d]pyrimidin-5-ium-2-yl]azetidin-3-yl] tetrahydropyran-4-carboxylate], the negative logarithm of the IC50 (pIC50) in assay [1] and in assay [2] was greater than 7.00 throughout.
As to `CC(=O)N1CC[C@H](Nc2nc(N3CC(OC(=O)c4cscn4)C3)nc3c2[S@+](O)CC3)C1` [Example 73, [1-[4-[[(3S)-1-acetyl-pyrrolidin-3-yl]amino]-5-oxido-6,7-dihydro-thieno[3,2-d]pyrimidin-5-ium-2-yl]azetidin-3-yl]thiazole-4-carboxylate], the pIC50 in assay [1] is 6.30 to 7.00; in assay [2], greater than 7.00.
In the same order, the values of `CC(=O)N1CC[C@H](Nc2nc(N3CC(OC(=O)C4CCOCC4)C3)nc3c2[S@+](O)CC3)C1` [Example 74, [1-[4-[[(3S)-1-acetyl-pyrrolidin-3-yl]amino]-5-oxido-6,7-dihydro-thieno[3,2-d]pyrimidin-5-ium-2-yl]azetidin-3-yl]tetrahydropyran-4-carboxylate] are 6.30 to 7.00 and greater than 7.00.
Turning to `CC(=O)N1CC[C@@H](Nc2nc(N3CC(OC(=O)C4CCOCC4)C3)nc3c2[S@+](O)CC3)C1` [Example 75, [1-[4-[[(3R)-1-acetyl-pyrrolidin-3-yl]amino]-5-oxido-6,7-dihydro-thieno[3,2-d]pyrimidin-5-ium-2-yl]azetidin-3-yl] tetrahydropyran-4-carboxylate], the negative logarithm of the IC50 (pIC50) in assay [1] and in assay [2] was less than 6.30 in each case.
`CC(=O)N1CCC(Nc2nc(N3CC(OC(=O)c4cscn4)C3)nc3c2[S+](O)CC3)CC1` (stereo not drawn) [Example 76, [1-[4-[(1-acetyl-4-piperidyl)amino]-5-oxido-6,7-dihydrothieno[3,2-d]pyrimidin-5-ium-2-yl]-azetidin-3-yl] thiazole-4-carboxylate]: the pIC50 was less than 6.30 in assay [1] and 6.30 to 7.00 in assay [2].
Consider `CC(=O)N1CCC(Nc2nc(N3CC(OC(=O)C4CCOCC4)C3)nc3c2[S+](O)CC3)CC1` (stereo not drawn) [Example 77, [1-[4-[(1-acetyl-4-piperidyl)amino]-5-oxido-6,7-dihydrothieno[3,2-d]pyrimidin-5-ium-2-yl]azetidin-3-yl] tetra-hydropyran-4-carboxylate], for which the pIC50 in assay [1] and in assay [2] was 6.30 to 7.00 throughout.

The values are drawn from patent US11365204B2, “Substituted dihydrothienopyrimidines and their use as phosphodiesterase inhibitors” (UNION therapeutics A/S, priority 2017, dated 2022).
